{"source": "patent US4694069A", "about": "“Kibdelosporangium aridum SK&F-AAD-609” (SmithKline Beckman Corporation, priority 1985, dated 1987)", "key": {"pigs": {"tested_on": "pigs", "settings": "pig, in vivo; cited from earlier work"}, "Clostridium difficile": {"tested_on": "Clostridium difficile", "assay": "In vitro MIC, standard microtiter assay", "assay_type": "cell-based", "settings": "Clostridioides difficile", "source_text": "(§1) In vitro minimum inhibitory concentrations (MIC) of the AAD-609 complex and of Factors A, B, CC2 and D, using standard microtiter assay procedures, against a number of microorganisms are reported in Table A, which follows."}, "Escherichia coli 12140": {"tested_on": "Escherichia coli 12140", "assay": "In vitro MIC, standard microtiter assay", "assay_type": "cell-based", "settings": "Escherichia coli, 12140", "source_text": "as §1"}, "S. epidermidis 2265": {"tested_on": "S. epidermidis 2265", "assay": "In vitro MIC, standard microtiter assay", "assay_type": "cell-based", "settings": "Staphylococcus epidermidis, 2265", "source_text": "as §1"}, "S. epidermidis 2479 [1]": {"tested_on": "S. epidermidis 2479", "assay": "In vitro MIC, standard microtiter assay", "assay_type": "cell-based", "source_text": "as §1"}, "S. epidermidis 2683": {"tested_on": "S. epidermidis 2683", "assay": "In vitro MIC, standard microtiter assay", "assay_type": "cell-based", "settings": "Staphylococcus epidermidis, 2683", "source_text": "as §1"}, "[2]": {"tested_on": "S. epidermidis 651 (methicillin resistant strain)", "assay": "In vitro MIC, standard microtiter assay", "assay_type": "cell-based", "source_text": "as §1"}, "[3]": {"tested_on": "Salmonella gallinarum BC-595", "assay": "In vitro MIC, standard microtiter assay", "assay_type": "cell-based", "settings": "Salmonella enterica, GALLINARUM", "source_text": "as §1"}, "[4]": {"tested_on": "Staphylococcus aureus HH127", "assay": "In vitro MIC, standard microtiter assay", "assay_type": "cell-based", "source_text": "as §1"}, "[5]": {"tested_on": "Streptococcus faecalis 657", "assay": "In vitro MIC, standard microtiter assay", "assay_type": "cell-based", "settings": "Enterococcus faecalis, 657", "source_text": "as §1"}, "S. aureus 209P": {"tested_on": "S. aureus 209P", "assay": "In vitro MIC, standard microtiter assay", "assay_type": "cell-based, Staphylococcus aureus", "settings": "Staphylococcus aureus, 209P", "source_text": "as §1"}, "S. aureus 674": {"tested_on": "S. aureus 674", "assay": "In vitro MIC, standard microtiter assay", "assay_type": "cell-based, Staphylococcus aureus", "settings": "Staphylococcus aureus, 674", "source_text": "as §1"}, "S. aureus 675": {"tested_on": "S. aureus 675", "assay": "In vitro MIC, standard microtiter assay", "assay_type": "cell-based, Staphylococcus aureus", "settings": "Staphylococcus aureus, 675", "source_text": "as §1"}, "[6]": {"tested_on": "S. aureus 910 (methicillin resistant strain)", "assay": "In vitro MIC, standard microtiter assay", "assay_type": "cell-based, Staphylococcus aureus", "settings": "Staphylococcus aureus", "source_text": "as §1"}, "S. faecalis 34358 [7]": {"tested_on": "S. faecalis 34358", "assay": "In vitro MIC, standard microtiter assay", "assay_type": "cell-based, Streptococcus faecalis", "source_text": "as §1"}, "[8]": {"tested_on": "S. aureus 2620 (methicillin resistant strain)", "assay": "MIC", "assay_type": "cell-based", "settings": "Staphylococcus aureus", "source_text": "as §1"}, "[9]": {"settings": "30:70 acetonitrile:water"}, "[10]": {"settings": "mouse, in vivo"}, "SK&F-AAD-609": {"tested_on": "SK&F-AAD-609", "assay": "Susceptibility of SK&F-AAD-609 to antibiotics (diffusion method, BBL susceptibility disks)", "assay_type": "cell-based, Kibdelosporangium aridum subsp. largum", "settings": "disk 30 μg; 28° C., one week", "description": "Susceptibility of SK&F-AAD-609 to antibiotics was examined by placing BBL susceptibility disks on nutrient agar plates seeded with SK&F-ADD-609 as an agar overlay. Plates were placed at 4° C. for one hour to permit diffusion of the anitbiotics and, subsequently, incubated at 28° C. Diameters of the zones of inhibition were measured after incubation for one week.\nSusceptibility to Antibiotics. […] Chlortetracycline (5 μg) produced 17-18 mm zones of inhibition; tetracycline (5 μg) 9-12 mm zones; rifampin (5 μg) 10-12 mm zones; novobiocin (5 μg) 30-35 mm zones. All zones of inhibition contained at least a few resistant colonies."}, "[11]": {"tested_on": "S. aureus 2620 (methicillin resistant strain)", "assay": "Mouse protection test", "assay_type": "in vivo", "settings": "Staphylococcus aureus, sc", "source_text": "(§2) in mouse protection tests^1\n(§3) ^1 Mice dosed 1 and 5 H post infection s.c.; ED50, mg/kg."}, "S. aureus HH127": {"tested_on": "S. aureus HH127", "assay": "Mouse protection test", "assay_type": "in vivo", "settings": "Staphylococcus aureus, HH127, sc", "source_text": "as §2, §3"}, "S. epidermidis 2479 [12]": {"tested_on": "S. epidermidis 2479", "assay": "Mouse protection test", "assay_type": "in vivo", "settings": "Staphylococcus epidermidis, 2479, sc", "source_text": "as §2, §3"}, "[13]": {"tested_on": "S. epidermidis 651 (methicillin resistant strain)", "assay": "Mouse protection test", "assay_type": "in vivo", "settings": "Staphylococcus epidermidis, sc", "source_text": "as §2, §3"}, "S. faecalis 34358 [14]": {"tested_on": "S. faecalis 34358", "assay": "Mouse protection test", "assay_type": "in vivo", "settings": "Enterococcus faecalis, 34358, sc", "source_text": "as §2, §3"}, "[15]": {"settings": "comparators, source not given; cited from earlier work"}, "[16]": {"settings": "Table B, methicillin resistant strain"}}, "note": "Read-outs that look alike come from different tables or passages of the source. Bridge positions count the residues as written; N and C are the ends. Square brackets hold non-standard residues; d marks the D form. Peptide text beside a SMILES is read from it. * marks the point of attachment. Ileψ(thiazoline)Cys = CC[C@H](C)[C@H](N)C1=N[C@H](C(=O)*)CS1; dOrn = NCCC[C@@H](N)C(=O)O", "data": [{"smiles": "CC[C@H](C)[C@H](N)C1=N[C@H](C(=O)N[C@@H](CC(C)C)C(=O)N[C@H](CCC(=O)O)C(=O)N[C@H](C(=O)N[C@H]2CCCCNC(=O)[C@H](CC(N)=O)NC(=O)[C@@H](CC(=O)O)NC(=O)[C@H](Cc3cnc[nH]3)NC(=O)[C@@H](Cc3ccccc3)NC(=O)[C@H]([C@@H](C)CC)NC(=O)[C@@H](CCCN)NC2=O)[C@@H](C)CC)CS1", "note": "[Bacitracin, bacitracin] ({Ileψ(thiazoline)Cys}-L[dE]IK[dOrn]I[dF]H[dD]N; lactam 4-C)", "values": [{"measurement": "Growth promotion in pigs (in words)", "setting": "pigs", "value": "known growth promoter in pigs"}]}, {"smiles": "CCCCCCCCCC(=O)NC1C(Oc2c3cc4cc2Oc2c(Cl)cc(cc2Cl)C(O)C2NC(=O)C(NC(=O)C4NC(=O)C4NC(=O)C(NC(=O)C(NC)c5ccc(O)c(c5)Oc5cc(O)c(Cl)c4c5)C(O)c4ccc(c(Cl)c4)O3)c3ccc(O)c(c3)-c3c(OC4OC(CO)C(O)C(O)C4O)cc(O)cc3C(C(=O)O)NC2=O)OC(CO)C(O)C1O", "note": "(stereo not shown) [AAD-609 A]", "values": [{"measurement": "MIC", "setting": "Clostridium difficile; Table A, read-out: MIC", "value": 0.5, "unit": "µg/mL"}, {"measurement": "MIC", "setting": "Escherichia coli 12140; Table A, read-out: MIC", "value": "> 100", "unit": "µg/mL"}, {"measurement": "MIC", "setting": "S. epidermidis 2265; Table A, read-out: MIC", "value": 25, "unit": "µg/mL"}, {"measurement": "MIC", "setting": "S. epidermidis 2479 [1]; Staphylococcus epidermidis, 2479, Table A, read-out: MIC", "value": 12.5, "unit": "µg/mL"}, {"measurement": "MIC", "setting": "S. epidermidis 2479 [1]; Table B", "value": 12.5, "unit": "µg/mL"}, {"measurement": "MIC", "setting": "S. epidermidis 2683; Table A, read-out: MIC", "value": 24, "unit": "µg/mL"}, {"measurement": "MIC", "setting": "[2]; Staphylococcus epidermidis, Table A, methicillin resistant strain, read-out: MIC", "value": 50, "unit": "µg/mL"}, {"measurement": "MIC", "setting": "[2]; [16]", "value": 50, "unit": "µg/mL"}, {"measurement": "MIC", "setting": "[3]; Table A, read-out: MIC", "value": "> 100", "unit": "µg/mL"}, {"measurement": "MIC", "setting": "[4]; Staphylococcus aureus, HH127, Table A, read-out: MIC", "value": 1.6, "unit": "µg/mL"}, {"measurement": "MIC", "setting": "[4]; Table B", "value": 1.6, "unit": "µg/mL"}, {"measurement": "MIC", "setting": "[5]; Table A, read-out: MIC", "value": 0.4, "unit": "µg/mL"}, {"measurement": "MIC", "setting": "S. aureus 209P; Table A, read-out: MIC", "value": 0.4, "unit": "µg/mL"}, {"measurement": "MIC", "setting": "S. aureus 674; Table A, read-out: MIC", "value": 0.8, "unit": "µg/mL"}, {"measurement": "MIC", "setting": "S. aureus 675; Table A, read-out: MIC", "value": 6.3, "unit": "µg/mL"}, {"measurement": "MIC", "setting": "[6]; Table A, methicillin resistant strain, read-out: MIC", "value": 1.6, "unit": "µg/mL"}, {"measurement": "MIC", "setting": "S. faecalis 34358 [7]; Enterococcus faecalis, 34358, Table A, read-out: MIC", "value": 0.4, "unit": "µg/mL"}, {"measurement": "MIC", "setting": "S. faecalis 34358 [7]; Table B", "value": 0.4, "unit": "µg/mL"}, {"measurement": "MIC", "setting": "[8]; Table B, methicillin resistant strain, read-out: MIC", "value": 2, "unit": "µg/mL"}, {"measurement": "pKa (A) carboxyl on aglycone", "setting": "[9]", "value": 3.4}, {"measurement": "pKa (C) amino group on aglycone", "setting": "[9]", "value": 7.1}, {"measurement": "Elimination half-life", "setting": "[10]", "value": 1.93, "unit": "h"}, {"measurement": "Maximum serum concentration", "setting": "[10]", "value": 90, "unit": "µg/mL"}]}, {"smiles": "CN[C@H](CC(C)C)C(=O)N[C@H]1C(=O)N[C@@H](CC(N)=O)C(=O)N[C@H]2C(=O)N[C@H]3C(=O)N[C@H](C(=O)N[C@H](C(=O)O)c4cc(O)cc(O)c4-c4cc3ccc4O)[C@H](O)c3ccc(c(Cl)c3)Oc3cc2cc(c3O[C@@H]2O[C@H](CO)[C@@H](O)[C@H](O)[C@H]2O[C@H]2C[C@](C)(N)[C@H](O)[C@H](C)O2)Oc2ccc(cc2Cl)[C@H]1O", "note": "[Vancomycin, vancomycin]", "values": [{"measurement": "Susceptibility (diffusion method)", "setting": "SK&F-AAD-609", "value": "resistant"}, {"measurement": "MIC", "setting": "Clostridium difficile", "value": 2, "unit": "µg/mL"}, {"measurement": "MIC", "setting": "Escherichia coli 12140", "value": "> 100", "unit": "µg/mL"}, {"measurement": "MIC", "setting": "S. epidermidis 2265", "value": 1.6, "unit": "µg/mL"}, {"measurement": "MIC", "setting": "S. epidermidis 2479 [1]; Staphylococcus epidermidis, 2479", "value": 3.1, "unit": "µg/mL"}, {"measurement": "MIC", "setting": "S. epidermidis 2479 [1]; Table B", "value": 3.1, "unit": "µg/mL"}, {"measurement": "MIC", "setting": "S. epidermidis 2683", "value": 3.1, "unit": "µg/mL"}, {"measurement": "MIC", "setting": "[2]; Staphylococcus epidermidis", "value": 3.1, "unit": "µg/mL"}, {"measurement": "MIC", "setting": "[2]; [16]", "value": 3.1, "unit": "µg/mL"}, {"measurement": "MIC", "setting": "[3]", "value": 100, "unit": "µg/mL"}, {"measurement": "MIC", "setting": "[4]; Staphylococcus aureus, HH127", "value": 1.6, "unit": "µg/mL"}, {"measurement": "MIC", "setting": "[4]; Table B", "value": 1.6, "unit": "µg/mL"}, {"measurement": "MIC", "setting": "[5]", "value": 3.1, "unit": "µg/mL"}, {"measurement": "MIC", "setting": "S. aureus 209P", "value": 0.8, "unit": "µg/mL"}, {"measurement": "MIC", "setting": "S. aureus 674", "value": 1.6, "unit": "µg/mL"}, {"measurement": "MIC", "setting": "S. aureus 675", "value": 3.1, "unit": "µg/mL"}, {"measurement": "MIC", "setting": "[6]", "value": 1.6, "unit": "µg/mL"}, {"measurement": "MIC", "setting": "S. faecalis 34358 [7]; Enterococcus faecalis, 34358", "value": 3.1, "unit": "µg/mL"}, {"measurement": "MIC", "setting": "S. faecalis 34358 [7]; Table B", "value": 3.1, "unit": "µg/mL"}, {"measurement": "MIC", "setting": "[8]", "value": 2, "unit": "µg/mL"}, {"measurement": "ED50", "setting": "[11]", "value": 6.7, "unit": "mg/kg"}, {"measurement": "ED50", "setting": "S. aureus HH127", "value": 1.4, "unit": "mg/kg"}, {"measurement": "ED50", "setting": "S. epidermidis 2479 [12]", "value": 4.1, "unit": "mg/kg"}, {"measurement": "ED50", "setting": "[13]", "value": 4.8, "unit": "mg/kg"}, {"measurement": "ED50", "setting": "S. faecalis 34358 [14]", "value": 12.5, "unit": "mg/kg"}, {"measurement": "Isoelectric point", "setting": "[15]", "value": 8.2}, {"measurement": "Elimination half-life", "setting": "Pharmacokinetics in mice; mice", "value": 0.333, "unit": "h"}, {"measurement": "Cmax", "setting": "Pharmacokinetics in mice; mouse, serum", "value": 30000, "unit": "ng/mL"}]}]}
